Test results as given in publication PMC5026167, “Characterizing Active Site Conformational Heterogeneity along the Trajectory of an Enzymatic Phosphoryl Transfer Reaction” (Angewandte Chemie (International Ed. in English), 2016).
Where two headings read alike, the source gives them in different places.

What was measured:
UmpK (UMP/CMP kinase) [1] = molecular target: T1, UmpK (UMP/CMP kinase) (Dictyostelium discoideum, UniProt P20425); experiment: stopped-flow nucleotide exchange with MANT-AP5A-MANT; format: binding; conditions: dissociation rate of ADP and UMP together, no metal fluoride
T1 construct: gene pyrK; recombinant, expressed and purified as in Supporting Information; details not in main text

UmpK (UMP/CMP kinase) [2] = molecular target: T1, UmpK (UMP/CMP kinase); experiment: biochemical; parameters: fluorescence titration, equilibrium binding / displacement of fluorescent MANT-ADP
Description: First, we defined and characterized stable states along the reaction coordinate (Supporting Information). One reference state is nucleotide‐free (apo) UmpK (Figure 1 a), where the catalytic side‐chains are expected to be very flexible because of the absence of any ligand, thus giving an indication of the upper limit of conformational entropy. An ideal reference for a substrate/product‐bound state is provided by UmpK in complex with the bi‐substrate inhibitor AP5U (Supporting Information; Figure 1 b), where a phosphate group covalently links ATP and UMP such that nucleotide‐like binding occurs but without turnover.11 The overall structure of UmpK in complex with AP5U is essentially identical to other nucleotide‐bound structures available (Figure 1 b). Despite minor differences in the lid loop conformation and the aliphatic part of the R137 side‐chain, the position of the central guanidino groups is nearly identical. […] The transition state of the phosphoryl transfer reaction is well‐represented by UmpK in complex with the TSA formed by ADP, UMP/CMP and an AlFx molecule that mimics the phosphoryl group being transferred (Figure 1 c).7 To further confirm the formation of a stable complex that captures the transition state structure, we performed functional studies including nucleotide exchange kinetics measurements in the presence and absence of aluminium fluoride (Figures 1 f and S1/S2, Table S1).  Figure 1 a) Nucleotide‐free UmpK (H. sapiens, PDB: 1TEV10). b) Overlay of UmpK in complex with the bi‐substrate inhibitor AP5U, (red, D. discoideum, PDB: 1UKE11), and in complex with ADP and CMP (orange, D. discoideum, PDB: 2UKD7). c) UmpK in complex with the TSA ADP:AlFx:CMP (D. discoideum, PDB: 3UKD7). In (a–c) arginine side‐chains are shown in yellow (numbering refers to UmpK from D. discoideum). d) Schematic representation of the reaction catalyzed by UmpK and the states studied here: nucleotide‐free (green), substrate/product‐bound (red), and the transition state (blue). e) AP5U binding to UmpK monitored by equilibrium displacement of fluorescent MANT‐ADP. Binding of AP5U (K D≤1.0 nM) generates a stable substrate/product‐like state. f) Nucleotide exchange kinetics measured by stopped flow. UmpK incubated with UMP and ADP in the presence of 0.5 mM AlFx (blue), 3 mM MgFx (grey) or in the absence of any fluoride (red) was mixed rapidly with the competing ligand MANT‐AP5A‐MANT. […] 3 Materials and Methods: 1. Mutagenesis, protein expression and purification: Arginine to lysine mutations were introduced into UmpK from Dictyostelium discoideum using the QuikChange® protocol. DNA sequencing was performed to verify the eight introduced mutations. Unlabeled [U-1 H,12C,14N] UmpK was expressed in LB medium, uniformly 15N-/ 13C-labeled [U-13C,15N] UmpK was expressed in M9 minimal medium using 2 g/L U-13C-glucose and 1 g/L 15NH4Cl as the sole carbon and nitrogen sources, respectively. Selectively labelled [13C,15N-Arg; U-12C,14N] UmpK and [13C,15N-Arg+Lys; U-12C,14N] UmpK with only (i) arginine residues or (ii) lysine and arginine residues isotopically labelled, respectively, were expressed in M9 minimal medium supplemented (i) 100 mg/L 15N-/ 13C-arginine or (ii) 100 mg/L 15N-/ 13C-arginine and 15N-/ 13C-lysine. All UmpK variants were purified as described previously using Blue Sepharose affinity chromatography and SourceQ anion exchange chromatography.

UmpK (UMP/CMP kinase) [3] = molecular target: T1, UmpK (UMP/CMP kinase); experiment: biochemical; parameters: fluorescence titration of nucleotide binding to UmpK (MANT-ADP fluorescence / displacement); conditions: Mg-free
Description: First, we defined and characterized stable states along the reaction coordinate (Supporting Information). One reference state is nucleotide‐free (apo) UmpK (Figure 1 a), where the catalytic side‐chains are expected to be very flexible because of the absence of any ligand, thus giving an indication of the upper limit of conformational entropy. An ideal reference for a substrate/product‐bound state is provided by UmpK in complex with the bi‐substrate inhibitor AP5U (Supporting Information; Figure 1 b), where a phosphate group covalently links ATP and UMP such that nucleotide‐like binding occurs but without turnover.11 The overall structure of UmpK in complex with AP5U is essentially identical to other nucleotide‐bound structures available (Figure 1 b). Despite minor differences in the lid loop conformation and the aliphatic part of the R137 side‐chain, the position of the central guanidino groups is nearly identical. […] The transition state of the phosphoryl transfer reaction is well‐represented by UmpK in complex with the TSA formed by ADP, UMP/CMP and an AlFx molecule that mimics the phosphoryl group being transferred (Figure 1 c).7 To further confirm the formation of a stable complex that captures the transition state structure, we performed functional studies including nucleotide exchange kinetics measurements in the presence and absence of aluminium fluoride (Figures 1 f and S1/S2, Table S1).  Figure 1 a) Nucleotide‐free UmpK (H. sapiens, PDB: 1TEV10). b) Overlay of UmpK in complex with the bi‐substrate inhibitor AP5U, (red, D. discoideum, PDB: 1UKE11), and in complex with ADP and CMP (orange, D. discoideum, PDB: 2UKD7). c) UmpK in complex with the TSA ADP:AlFx:CMP (D. discoideum, PDB: 3UKD7). In (a–c) arginine side‐chains are shown in yellow (numbering refers to UmpK from D. discoideum). d) Schematic representation of the reaction catalyzed by UmpK and the states studied here: nucleotide‐free (green), substrate/product‐bound (red), and the transition state (blue). e) AP5U binding to UmpK monitored by equilibrium displacement of fluorescent MANT‐ADP. Binding of AP5U (K D≤1.0 nM) generates a stable substrate/product‐like state. f) Nucleotide exchange kinetics measured by stopped flow. UmpK incubated with UMP and ADP in the presence of 0.5 mM AlFx (blue), 3 mM MgFx (grey) or in the absence of any fluoride (red) was mixed rapidly with the competing ligand MANT‐AP5A‐MANT.

[4] = 5 mM MgCl2, alone, read-out: UmpK wild-type (5 mM MgCl2) Alone
[5] = with CMP, 5 mM MgCl2, 250 uM second nucleotide present, read-out: UmpK wild-type (5 mM MgCl2) in the presence of 250 uM second nucleotide
[6] = with ADP, 5 mM MgCl2, 250 uM second nucleotide present, read-out: UmpK wild-type (5 mM MgCl2) in the presence of 250 uM second nucleotide
[7] = with 250 uM ADP, read-out: wild-type (Mg-free) in presence of 250 uM ADP

T1 sequence (P20425 whole entry): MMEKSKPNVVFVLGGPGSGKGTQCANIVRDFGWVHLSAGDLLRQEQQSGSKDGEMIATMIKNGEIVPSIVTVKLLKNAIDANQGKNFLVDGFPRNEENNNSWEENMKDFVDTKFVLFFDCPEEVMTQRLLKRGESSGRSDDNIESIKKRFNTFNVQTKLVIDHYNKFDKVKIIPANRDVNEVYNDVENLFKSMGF

SMILES	k fast (UmpK (UMP/CMP kinase) [1]; UMP present)	Kd (UmpK (UMP/CMP kinase) [2]; [4]) [µM]	Kd (UmpK (UMP/CMP kinase) [2]; [5]) [µM]	Kd (UmpK (UMP/CMP kinase) [3]; with 250 uM CDP, read-out: wild-type (Mg-free) in presence of 250 uM CDP) [µM]	Kd (UmpK (UMP/CMP kinase) [3]; with 250 uM CMP, read-out: wild-type (Mg-free) in presence of 250 uM CMP) [µM]	Kd (UmpK (UMP/CMP kinase) [2]; [6]) [µM]	Kd (UmpK (UMP/CMP kinase) [3]; [7]) [µM]	k fast (UmpK (UMP/CMP kinase) [1]; ADP present)
Nc1ncnc2c1ncn2[C@@H]1O[C@H](COP(=O)(O)OP(=O)(O)O)[C@@H](O)[C@H]1O [ADP]	~ 60 s^-1	80 ± 2	10 ± 1	49 ± 0.5				
Nc1ncnc2c1ncn2[C@@H]1O[C@H](COP(=O)(O)OP(=O)(O)OP(=O)(O)O)[C@@H](O)[C@H]1O [ATP]		51 ± 2	7.3 ± 0.4		68 ± 3			
Nc1ccn([C@@H]2O[C@H](COP(=O)(O)OP(=O)(O)O)[C@@H](O)[C@H]2O)c(=O)n1 [CDP]		66 ± 11				17 ± 3	64 ± 6	
Nc1ccn([C@@H]2O[C@H](COP(=O)(O)O)[C@@H](O)[C@H]2O)c(=O)n1 [CMP]		77 ± 11				23 ± 3	205 ± 20	
O=c1ccn([C@@H]2O[C@H](COP(=O)(O)OP(=O)(O)O)[C@@H](O)[C@H]2O)c(=O)[nH]1 [UDP]		600 ± 70				60 ± 14	400 ± 45	
O=c1ccn([C@@H]2O[C@H](COP(=O)(O)O)[C@@H](O)[C@H]2O)c(=O)[nH]1 [UMP]								~ 60 s^-1
